Source: US9963461B2, “Phillygenin ibuprofen ester, preparation method therefor, and application thereof” (priority 2014, dated 2018)
Marks after values point to notes of the source that are not given here.

What was measured:
[1] = system: sweat secretion of rat paw part; assay: Sweat secretion of rat paw part (coloring method); format: in vivo, Wistar rats; details: after coating B liquid for 15 minutes (Table 2-5); for Animal number of sweat points of level +++: +++ = sweat area about 41-70%; for Animal number of sweat points of level ++++: ++++ = sweat area over 71%; for Animal number of sweat points of level −: − = no sweat point; for Animal number of sweat points of level +: + = sweat area below about 10%; for Animal number of sweat points of level ++: ++ = sweat area about 11-40%
Text: This test was designed to observe the change of sweat secretion based on the mechanism that sweat gland is distributed on the rat paw pads, and iodine and starch can have purple reaction when encountered with sweat. In the test, 350 Wistar rats were selected, with equal male and female number, weighing 120-150 g. […] The rats were placed in a self-made rat fixation bag, with the double hind limbs exposed. The dirts on the right paw was gently scrubbed clean with the cotton swab dipped with anhydrous ethanol. Besides that subcutaneous injection was used for the pilocarpine solution, intragastric administration was used for all the other groups. […] When the test was complete, statistical process was carried out according to the rank-sum test with two-sample comparison, in order to compare the difference between the groups.

[2] = system: influenza virus; assay: Impact of the drugs on the virus-induced cytopathy (MTT); format: cell-based; details: influenza virus 100 TCID50, Vero cells, about the maximal non-cytotoxic concentration, 72 hours
[3] = system: beer yeast induced rat fever; assay: Beer yeast induced rat fever; format: in vivo, Wistar rats
Experimental: Male Wistar rats were selected, weighing 180-200 g. Before the test, WSC-411P portable digital thermometer was used to measure the normal rectal temperature twice (with certain interval for each time), and the average value of the two measurements was taken as the normal body temperature of the rat. Then 70 rats with the body temperature between 36.5° C. and 38° C. were chosen to be randomly divided into 7 groups by weight: the model (0.5% carboxymethylcellulose) group, the 2.5, 5, and 10 mg/kg phillygenin ibuprofen ester groups, the positive drug paracetamol (100 mg/kg) group, the ibuprofen group (i.e. prodrug control group, 300 mg/kg), the phillygenin group (100 mg/kg), with 10 rats for each group. Each group of rats were subjected to back subcutaneous injection with 10% fresh beer yeast suspension of 10 ml/kg to induce heat. After administration of 10% fresh beer yeast suspension for 6.0 h, phillygenin ibuprofen ester and paracetamol were both subjected to intragastric administration, and the model group was intragastrically administrated with equal volume of 0.5% carboxymethylcellulose. Rectal temperature was measured after 1 h, 2 h, 3 h and 4 h of the administration respectively. Changes in the body temperature were observed and difference between the groups was compared by inter-group t test processing through antipyretic percentage.

[4] = system: rat toe swelling induced by carrageenan; assay: Rat toe swelling induced by carrageenan; format: in vivo, Wistar rats
Experimental: The test groups were administered by sublingual intravenous injection. Before the test, capillary magnification measurement method was used to measure the normal volume of the right hind foot of the rats in each group. To avoid errors, the measurement location was fixed and the operation was made by one person both before and after the administration. The average value of the two measurements was taken as the normal volume of the right hind foot of the rats before administration. […] The difference between the groups was compared by inter-group t test processing through the difference percentage (swelling ratio) of the paw volume before and after the induced rat inflammation.

[5] = system: Adenovirus (AdV); assay: Impact of the drugs on the virus-induced cytopathy (MTT); format: cell-based; details: ADV 100 TCID50, Vero cells, about the maximal non-cytotoxic concentration, 72 hours
[6] = system: mice pain induced by acetic acid; assay: Analgesic test, mice writhing induced by acetic acid; format: in vivo, Kunming mice; details: for Writhing times: within 15 min after 0.7% acetic acid
Experimental: 72 Kunming mice were randomly divided into 6 groups, with 12 mice for each group. (1) the blank normal control group (i.e. saline group, […]); (2) positive drug aspirin group (200 mg/kg); (3) ibuprofen group (300 mg/kg); (4) high dose group of phillygenin ibuprofen ester (300 mg/kg); (5) medium dose group of phillygenin ibuprofen ester (150 mg/kg); (6) low dose group of phillygenin ibuprofen ester (75 mg/kg). […] The number of mice writhings within 15 min after administration was recorded. The number of writhings was taken as the evaluation index to evaluate the analgesic effect.

[7] = 2.5 mg/kg, 1 h after administration
[8] = 2.5 mg/kg, 2 h after administration
[9] = 2.5 mg/kg, 3 h after administration
[10] = 2.5 mg/kg, 4 h after administration
[11] = 5.0 mg/kg, 1 h after administration
[12] = 5.0 mg/kg, 2 h after administration
[13] = 5.0 mg/kg, 3 h after administration
[14] = 5.0 mg/kg, 4 h after administration
[15] = 10.0 mg/kg, 1 h after administration
[16] = 10.0 mg/kg, 3 h after administration
[17] = 10.0 mg/kg, 4 h after administration

SMILES: COc1ccc([C@H]2OCC3C2CO[C@H]3c2ccc(OC)c(OC(=O)C(C)c3ccc(CC(C)C)cc3)c2)cc1OC (some centres unmarked) [Phillygenin ibuprofen ester, phillygenin ibuprofen ester]
- Animal number of sweat points of level +++ ([1]; 2.5 mg/kg intragastric): 3
- Animal number of sweat points of level ++++ ([1]; 2.5 mg/kg intragastric): 5
- Animal number of sweat points of level − ([1]; 2.5 mg/kg intragastric): 0
- Animal number of sweat points of level + ([1]; 5.0 mg/kg intragastric): 0
- Animal number of sweat points of level ++ ([1]; 5.0 mg/kg intragastric): 1
- Animal number of sweat points of level +++ ([1]; 5.0 mg/kg intragastric): 4
- Animal number of sweat points of level ++++ ([1]; 5.0 mg/kg intragastric): 5
- Animal number of sweat points of level − ([1]; 5.0 mg/kg intragastric): 0
- Animal number of sweat points of level + ([1]; 10.0 mg/kg intragastric): 0
- Animal number of sweat points of level ++ ([1]; 10.0 mg/kg intragastric): 0
- Animal number of sweat points of level +++ ([1]; 10.0 mg/kg intragastric): 5
- Animal number of sweat points of level ++++ ([1]; 10.0 mg/kg intragastric): 5
- Animal number of sweat points of level − ([1]; 10.0 mg/kg intragastric): 0
- antiviral effective rate (ER %) [2]: 99.95**^# %
- Body temperature (° C.) [3, 7]: 38.93 ± 0.43 °C
- antipyretic percentage (%) [3, 7]: −1.01 ± 1.05 %
- Body temperature (° C.) [3, 8]: 38.75 ± 0.43 °C
- antipyretic percentage (%) [3, 8]: −1.48 ± 1.11 %
- Body temperature (° C.) [3, 9]: 38.56 ± 0.52 °C
- antipyretic percentage (%) [3, 9]: −1.97 ± 1.67 %
- Body temperature (° C.) [3, 10]: 38.25 ± 0.58 °C
- antipyretic percentage (%) [3, 10]: −2.47 ± 1.80 %
- Body temperature (° C.) [3, 11]: 38.48 ± 0.59 °C
- antipyretic percentage (%) [3, 11]: −1.91 ± 0.40 %
- Body temperature (° C.) [3, 12]: 38.33 ± 0.50 °C
- antipyretic percentage (%) [3, 12]: −2.29 ± 0.54**^Δ▴▴ %
- Body temperature (° C.) [3, 13]: 37.85 ± 0.33 °C
- antipyretic percentage (%) [3, 13]: −3.52 ± 0.38***^Δ▴ %
- Body temperature (° C.) [3, 14]: 37.67 ± 0.45 °C
- antipyretic percentage (%) [3, 14]: −3.98 ± 0.52***^Δ▴▴ %
- Body temperature (° C.) [3, 15]: 38.61 ± 0.51 °C
- antipyretic percentage (%) [3, 15]: −2.10 ± 0.53**^Δ▴▴ %
- Body temperature (° C.) ([3]; 10.0 mg/kg, 2 h after administration): 39.13 ± 0.45 °C
- Body temperature (° C.) [3, 16]: 37.8 ± 0.40 °C
- antipyretic percentage (%) [3, 16]: −4.01 ± 1.12***^Δ▴▴ %
- Body temperature (° C.) [3, 17]: 37.74 ± 0.31 °C
- antipyretic percentage (%) [3, 17]: −4.30 ± 1.26***^Δ▴▴ %
- effect on the rat fever induced by beer yeast suspension vs model group ([3]; medium and high dose groups (5, 10 mg/kg), 1 h, 2 h, 3 h and 4 h after administration): significant cooling effects
- Swelling ratio (%) ([4]; 2.5 mg/kg sublingual intravenous injection, 30 min): 0.215 ± 0.120%
- Swelling ratio (%) ([4]; 2.5 mg/kg sublingual intravenous injection, 60 min): 0.293 ± 1.117%
- Swelling ratio (%) ([4]; 2.5 mg/kg sublingual intravenous injection, 120 min): 0.450 ± 0.254%
- Swelling ratio (%) ([4]; 2.5 mg/kg sublingual intravenous injection, 180 min): 0.800 ± 0.339%
- Swelling ratio (%) ([4]; 2.5 mg/kg sublingual intravenous injection, 240 min): 0.865 ± 0.303%
- Swelling ratio (%) ([4]; 2.5 mg/kg sublingual intravenous injection, 300 min): 1.045 ± 0.308%
- Swelling ratio (%) ([4]; 2.5 mg/kg sublingual intravenous injection, 360 min): 0.930 ± 0.200%
- Swelling ratio (%) ([4]; 5.0 mg/kg sublingual intravenous injection, 30 min): 0.065 ± 0.112 %
- Swelling ratio (%) ([4]; 5.0 mg/kg sublingual intravenous injection, 60 min): 0.127 ± 0.178 %
- Swelling ratio (%) ([4]; 5.0 mg/kg sublingual intravenous injection, 120 min): 0.209 ± 0.438 %
- Swelling ratio (%) ([4]; 5.0 mg/kg sublingual intravenous injection, 180 min): 0.338 ± 0.524 %
- Swelling ratio (%) ([4]; 5.0 mg/kg sublingual intravenous injection, 240 min): 0.461 ± 0.402**^Δ %
- Swelling ratio (%) ([4]; 5.0 mg/kg sublingual intravenous injection, 300 min): 0.688 ± 0.503%
- Swelling ratio (%) ([4]; 5.0 mg/kg sublingual intravenous injection, 360 min): 0.675 ± 0.578%
- Swelling ratio (%) ([4]; 10.0 mg/kg sublingual intravenous injection, 30 min): 0.025 ± 0.210***^Δ▴▴▴ %
- Swelling ratio (%) ([4]; 10.0 mg/kg sublingual intravenous injection, 60 min): 0.079 ± 0.156**^Δ▴▴ %
- Swelling ratio (%) ([4]; 10.0 mg/kg sublingual intravenous injection, 120 min): 0.140 ± 0.156 %
- Swelling ratio (%) ([4]; 10.0 mg/kg sublingual intravenous injection, 180 min): 0.191 ± 0.216 %
- Swelling ratio (%) ([4]; 10.0 mg/kg sublingual intravenous injection, 240 min): 0.255 ± 0.294 %
- Swelling ratio (%) ([4]; 10.0 mg/kg sublingual intravenous injection, 300 min): 0.310 ± 0.226***^Δ▴▴ %
- Swelling ratio (%) ([4]; 10.0 mg/kg sublingual intravenous injection, 360 min): 0.405 ± 0.231 %
- effect on the rat paw swelling induced by carrageenin vs blank control group ([4]; high dose group, within 30 min to 360 min after administration): significant inhibitive effects
- antiviral effective rate (ER %) [5]: 75.90**^## %
- Writhing times ([6]; 75 mg/kg intragastric): 15.8*
- Writhing times ([6]; 150 mg/kg intragastric): 6.5*
- Writhing times ([6]; 300 mg/kg intragastric): 3.9*^#
- effect on mice pain induced by acetic acid vs blank control group ([6]; low, medium and high dose groups (75, 150, 300 mg/kg), P<0.01): had analgesic effect
